Laboratory results from patent publication US20260226020A1, “Nav 1.7 AND/OR Nav 1.8 BLOCKING HYDRAZIDES, PROCESSES FOR THE PREPARATION THEREOF, COMPOSITIONS, USES, METHODS OF TREATMENT USING SAME AND KITS” (Eurofarma Laboratórios S.A., priority 2023, published 2026).

What was measured:
[1] = target: T1, human sodium channels Nav 1.7 (Homo sapiens, UniProt Q15858); test: Automated whole-cell voltage-clamp (ScreenPatch 384P) sodium current block in CHO cells expressing Nav 1.7; format: cell-based; settings: CHO cells stably expressing human Nav 1.7; whole cell patch clamp, inactivation step -40 mV 8 s, test step 0 mV (TP1A), room temperature; mean where tested in two or more assays; read-out: Nav1.7 IC50
T1 construct: expressed in transfected cells
Method: (§1) Biological assays were performed on Chinese hamster ovary (CHO) cells that express human sodium channels Nav 1.8 or Nav 1.7 in a stable manner.
(§2) The experimental protocol voltage-clamp using the whole cell configuration was established on the automated ScreenPatch© 384P platform (SP384PE, Nanion Technologies, Livingston, NJ) and the results were recorded with a Nanion 384-well Patch Clamp chip (NPC) (Nanion Technologies, Livingston, NJ).
(§3) Formula I compounds were diluted in eight concentrations in the extracellular solution composed of saline saline solution, buffered with HEPES (mM): NaCl, 137; KCl, 4; CaCl2, 3.8; MgCl2, 1; HEPES, 10; Glucose, 10; pH 7.4. The […], 50; CsF, 90; MgCl2, 5; EGTA, 5; HEPES, 10; pH 7.2. The duration of exposure of each compound with cells expressing Nav 1.7 or Nav 1.8 was at least five minutes, and the assays were performed at room temperature.
(§4) The measurements of the sodium currents of Nav 1.8 and Nav 1.7 were obtained using the voltage protocol described below.
(§5) A holding voltage of −100 mV was established followed by an inactivation voltage step at −40 mV for 8 seconds, followed by a step of −100 mV for 20 ms, followed by a 20 ms step for 10 mV for Nav 1.8 or 0 mV for Nav 1.7 (TP1A) before returning to the holding voltage of −100 mV.
(§6) The protocol was repeated at a frequency of 0.05 Hz and the amplitude of the current was quantified throughout the recording of the TP1A phase. The variation in the amplitude of the peak current was evaluated according to the formula described below, after exposing the cells expressing the channels to each concentration of the different compounds:
(§7) wherein ITP1A,basal and ITP1A,molecule represent the peaks of sodium current input into TP1A before exposure to the compound and in the presence of the compound, respectively.
(§8) The decrease in the amplitude of the peak current, after the exposure of the cells to the compounds, was used to calculate the percentage of relative blockage of the channels in relation to the positive control according to the formula below: […]
(§9) wherein % V and % CP represent the means of the values of current inhibition with a vehicle (DMSO) and positive controls, respectively. The sodium currents of the positive control were considered as 100%.
(§10) wherein [Test] represents the concentration of the molecule evaluated, CI50 is the concentration of the compound that generates half of the maximum inhibition, N is the Hill coefficient, and % Block′ is the percentage of sodium channel current (Nav 1.8 and Nav 1.7) blocked at each concentration of the molecule evaluated. Data were obtained by nonlinear regression (nonlinear least squares) with XLfit for Excel (Microsoft, Redmond, WA).
(§11) The compounds were tested in at least one assay to obtain the value of CI50. For compounds that were tested in two or more assays, the results are described as the means of the CI50 values.

[2] = target: T2, human sodium channels Nav 1.8 (Homo sapiens, UniProt Q9Y5Y9); test: Automated whole-cell voltage-clamp (ScreenPatch 384P) sodium current block in CHO cells expressing Nav 1.8; format: cell-based; settings: CHO cells stably expressing human Nav 1.8; whole cell patch clamp, inactivation step -40 mV 8 s, test step 10 mV (TP1A), room temperature; mean where tested in two or more assays; read-out: Nav1.8 IC50
T2 construct: expressed in transfected cells
Method: as §1, §2, §3, §4, §5, §6, §7, §8, §9, §10, §11

T1 sequence (Q15858 whole entry): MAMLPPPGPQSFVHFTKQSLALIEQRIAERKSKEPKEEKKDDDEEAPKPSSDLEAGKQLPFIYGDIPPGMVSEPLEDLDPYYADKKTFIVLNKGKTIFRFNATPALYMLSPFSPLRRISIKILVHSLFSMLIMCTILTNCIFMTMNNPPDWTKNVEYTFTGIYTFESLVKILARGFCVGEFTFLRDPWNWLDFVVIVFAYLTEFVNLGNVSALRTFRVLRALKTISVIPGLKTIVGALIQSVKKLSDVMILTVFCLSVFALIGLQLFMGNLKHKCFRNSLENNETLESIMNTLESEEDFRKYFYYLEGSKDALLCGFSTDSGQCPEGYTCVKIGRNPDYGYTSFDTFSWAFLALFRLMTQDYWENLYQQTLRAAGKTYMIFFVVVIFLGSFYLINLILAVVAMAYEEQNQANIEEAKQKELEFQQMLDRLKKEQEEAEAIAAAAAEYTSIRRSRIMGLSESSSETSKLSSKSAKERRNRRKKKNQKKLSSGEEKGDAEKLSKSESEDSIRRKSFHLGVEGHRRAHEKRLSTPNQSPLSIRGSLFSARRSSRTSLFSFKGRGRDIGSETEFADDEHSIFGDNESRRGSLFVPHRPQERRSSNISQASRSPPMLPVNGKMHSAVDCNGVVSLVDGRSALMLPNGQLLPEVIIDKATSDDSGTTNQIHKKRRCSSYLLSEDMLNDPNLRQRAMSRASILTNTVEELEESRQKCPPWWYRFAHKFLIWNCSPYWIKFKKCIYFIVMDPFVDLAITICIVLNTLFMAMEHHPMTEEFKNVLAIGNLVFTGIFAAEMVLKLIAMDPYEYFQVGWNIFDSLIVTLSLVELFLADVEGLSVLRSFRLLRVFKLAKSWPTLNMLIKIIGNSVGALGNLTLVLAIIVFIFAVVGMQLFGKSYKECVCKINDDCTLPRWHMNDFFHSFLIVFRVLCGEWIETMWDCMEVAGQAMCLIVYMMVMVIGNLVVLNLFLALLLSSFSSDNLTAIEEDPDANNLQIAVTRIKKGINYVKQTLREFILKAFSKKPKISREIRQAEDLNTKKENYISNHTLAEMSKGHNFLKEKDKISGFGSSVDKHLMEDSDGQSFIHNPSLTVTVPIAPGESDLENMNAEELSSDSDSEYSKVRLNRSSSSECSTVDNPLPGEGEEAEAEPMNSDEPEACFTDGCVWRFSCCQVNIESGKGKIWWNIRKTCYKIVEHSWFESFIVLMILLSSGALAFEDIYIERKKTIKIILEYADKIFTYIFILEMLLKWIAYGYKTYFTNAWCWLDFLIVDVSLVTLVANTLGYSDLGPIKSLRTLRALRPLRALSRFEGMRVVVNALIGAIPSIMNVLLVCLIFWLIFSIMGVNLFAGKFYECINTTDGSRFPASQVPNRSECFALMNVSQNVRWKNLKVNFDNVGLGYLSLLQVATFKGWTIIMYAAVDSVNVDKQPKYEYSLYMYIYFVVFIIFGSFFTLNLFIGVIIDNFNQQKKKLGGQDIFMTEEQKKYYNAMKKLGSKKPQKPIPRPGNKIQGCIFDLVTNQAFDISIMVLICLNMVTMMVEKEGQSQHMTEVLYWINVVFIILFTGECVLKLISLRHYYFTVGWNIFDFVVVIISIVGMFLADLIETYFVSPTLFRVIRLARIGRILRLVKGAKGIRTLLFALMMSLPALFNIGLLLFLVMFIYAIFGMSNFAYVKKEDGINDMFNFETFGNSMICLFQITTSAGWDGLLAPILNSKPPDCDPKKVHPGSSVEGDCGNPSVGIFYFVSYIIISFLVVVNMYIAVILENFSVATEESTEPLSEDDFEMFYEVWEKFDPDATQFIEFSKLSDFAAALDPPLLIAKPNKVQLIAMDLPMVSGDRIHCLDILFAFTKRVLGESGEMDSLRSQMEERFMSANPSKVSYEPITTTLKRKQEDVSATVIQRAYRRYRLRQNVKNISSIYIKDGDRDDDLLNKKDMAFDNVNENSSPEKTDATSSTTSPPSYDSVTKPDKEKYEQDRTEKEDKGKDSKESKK
T2 sequence (Q9Y5Y9 whole entry): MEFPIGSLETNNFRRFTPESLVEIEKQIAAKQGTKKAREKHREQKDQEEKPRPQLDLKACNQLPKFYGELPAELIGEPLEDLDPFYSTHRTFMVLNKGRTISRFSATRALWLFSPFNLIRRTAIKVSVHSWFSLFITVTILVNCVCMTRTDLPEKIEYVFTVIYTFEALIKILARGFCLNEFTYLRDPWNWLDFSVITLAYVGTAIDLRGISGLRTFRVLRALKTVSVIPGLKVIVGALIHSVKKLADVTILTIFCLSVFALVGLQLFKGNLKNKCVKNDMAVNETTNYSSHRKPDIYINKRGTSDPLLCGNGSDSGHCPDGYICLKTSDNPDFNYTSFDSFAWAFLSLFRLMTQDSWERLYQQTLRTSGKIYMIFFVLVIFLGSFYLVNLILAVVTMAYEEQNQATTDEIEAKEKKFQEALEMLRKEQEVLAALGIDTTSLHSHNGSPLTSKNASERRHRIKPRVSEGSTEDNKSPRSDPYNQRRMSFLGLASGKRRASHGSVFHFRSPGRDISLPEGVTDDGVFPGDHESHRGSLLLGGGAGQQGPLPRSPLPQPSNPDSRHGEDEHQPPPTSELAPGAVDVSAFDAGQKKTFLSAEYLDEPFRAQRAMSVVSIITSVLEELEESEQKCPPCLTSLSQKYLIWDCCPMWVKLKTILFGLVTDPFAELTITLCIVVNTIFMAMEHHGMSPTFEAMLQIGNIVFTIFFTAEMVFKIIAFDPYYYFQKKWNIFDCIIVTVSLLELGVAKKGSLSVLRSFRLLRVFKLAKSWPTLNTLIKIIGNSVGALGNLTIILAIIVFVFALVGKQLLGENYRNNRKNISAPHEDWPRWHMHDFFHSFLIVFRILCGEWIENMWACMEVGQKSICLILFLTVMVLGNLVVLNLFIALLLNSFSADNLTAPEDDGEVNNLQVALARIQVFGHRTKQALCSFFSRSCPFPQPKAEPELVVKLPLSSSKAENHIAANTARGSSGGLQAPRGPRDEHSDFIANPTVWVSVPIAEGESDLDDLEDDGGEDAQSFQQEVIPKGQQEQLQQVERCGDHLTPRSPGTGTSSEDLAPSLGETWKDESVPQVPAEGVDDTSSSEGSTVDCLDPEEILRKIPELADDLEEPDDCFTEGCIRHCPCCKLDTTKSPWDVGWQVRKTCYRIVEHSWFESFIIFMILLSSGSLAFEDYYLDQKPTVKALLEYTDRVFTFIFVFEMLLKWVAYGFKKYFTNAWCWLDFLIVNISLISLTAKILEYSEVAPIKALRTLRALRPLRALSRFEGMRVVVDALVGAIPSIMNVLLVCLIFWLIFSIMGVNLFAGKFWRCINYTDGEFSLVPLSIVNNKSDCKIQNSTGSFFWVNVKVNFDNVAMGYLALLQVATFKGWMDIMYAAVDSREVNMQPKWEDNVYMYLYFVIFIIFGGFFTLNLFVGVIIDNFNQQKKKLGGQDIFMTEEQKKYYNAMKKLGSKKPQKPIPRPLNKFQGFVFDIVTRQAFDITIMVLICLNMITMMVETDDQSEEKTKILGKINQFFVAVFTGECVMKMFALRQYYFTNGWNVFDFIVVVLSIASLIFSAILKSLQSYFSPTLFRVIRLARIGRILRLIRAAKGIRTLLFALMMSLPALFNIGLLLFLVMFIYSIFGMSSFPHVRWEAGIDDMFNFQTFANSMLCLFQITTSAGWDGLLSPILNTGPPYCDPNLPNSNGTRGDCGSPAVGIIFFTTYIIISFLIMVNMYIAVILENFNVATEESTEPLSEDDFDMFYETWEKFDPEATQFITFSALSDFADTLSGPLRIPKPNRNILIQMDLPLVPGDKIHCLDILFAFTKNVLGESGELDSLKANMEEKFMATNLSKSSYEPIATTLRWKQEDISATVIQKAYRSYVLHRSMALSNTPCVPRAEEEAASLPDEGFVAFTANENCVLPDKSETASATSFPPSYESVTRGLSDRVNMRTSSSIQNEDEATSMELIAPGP

Row | IC50 [1] [nM] | IC50 [2] [nM] | Structure (SMILES)
1 | > 1000 | < 500 | CCOc1ccc(-c2cncc(C(=O)NNCc3cc(OC)cnc3C)n2)cn1 [Compound 34, 6-(6-ethoxypyridin-3-yl)-N′-((5-methoxy-2-methylpyridin-3-yl)methyl)pyrazine-2-carbohydrazide]
2 | > 1000 | > 1000 | CCOc1cc(C)c(-c2cncc(C(=O)NNCc3cc(OC)cc(OC)c3)n2)cn1 [Compound 40, N′-(3,5-dimethoxybenzyl)-6-(6-ethoxy-4-methylpyridin-3-yl)pyrazine-2-carbohydrazide]
3 | > 1000 | 500 to 1000 | COc1cc(CNNC(=O)c2cncc(-c3ccc(OC4CC4)nc3)n2)cc(OC)c1 [Compound 42, 6-(6-cyclopropoxypyridin-3-yl)-N′-(3,5-dimethoxybenzyl)pyrazine-2-carbohydrazide]
4 | > 1000 | < 500 | CCOc1ccc(-c2cncc(C(=O)NN3CCc4ccc(OC)cc4C3)n2)cc1 [Compound 45, 6-(4-ethoxyphenyl)-N-(7-methoxy-3,4-dihydroisoquinoline-2(1H)-yl)pyrazine-2-carboxamide]
5 | > 1000 | > 1000 | CCOc1ccc(-c2cnnc(C(=O)NNCc3ccccc3F)c2)cc1 [Compound 47, 5-(4-ethoxyphenyl)-N′-(2-fluorobenzyl)pyridazine-3-carbohydrazide]
6 | > 1000 | > 1000 | CCOc1ccc(-c2cccc(C(=O)NNCc3ccccc3F)n2)cc1 [Compound 50, 6-(4-ethoxyphenyl)-N′-(2-fluorobenzyl)picolinohydrazide]

Continued, compound first:

Row | Structure (SMILES) | IC50 [1] [nM] | IC50 [2] [nM]
7 | CCOc1ccc(-c2cncc(C(=O)NNCc3ccccc3F)n2)cn1 [Compound 39, 6-(6-ethoxypyridin-3-yl)-N′-(2-fluorobenzyl)pyrazine-2-carbohydrazide] | > 1000 | < 500
8 | CCOc1ccc(-c2cncc(C(=O)NNCc3cc(OC)cc(OC)c3)n2)c(C)n1 [Compound 41, N′-(3,5-dimethoxybenzyl)-6-(6-ethoxy-2-methylpyridin-3-yl)pyrazine-2-carbohydrazide] | > 1000 | 500 to 1000
9 | CCOc1ccc(-c2ccnc(C(=O)NNCc3ccccc3F)c2)cc1 [Compound 48, 4-(4-ethoxyphenyl)-N′-(2-fluorobenzyl)picolinohydrazide] | > 1000 | > 1000
10 | CCOc1ccc(-c2cncc(C(=O)NNCc3ccccc3F)c2)cc1 [Compound 49, 5-(4-ethoxyphenyl)-N′-(2-fluorobenzyl)nicotinohydrazide] | > 1000 | < 500
